{
  "source": "paper PMC6706711",
  "about": "(Iranian Journal of Pharmaceutical Research : IJPR, 2019)",
  "key": {"[1]": {"assay": "Individual pharmacokinetic parameters by renal function subgroup, post hoc empirical Bayesian approach", "conditions": "Total, N=155, mean ± SD", "protocol": "After fixing the PK parameters and variation in the final model, the PK parameters for individuals in three groups of different renal function were obtained by using post hoc empirical Bayesian approach. The mean values and standard deviation of the parameters in different groups were calculated."}, "[2]": {"conditions": "cited from earlier work", "from_the_text": "In this study, the data of 155 children (aged from 1 month to 16 years) infected with MRS were used to establish a PPK model suitable for Chinese children. And then the PK parameters were obtained by Bayesian method. […] But the value of CL is faster than that reported by Marques-Minana et al.([23]) (0.066 L· ..."}, "[3]": {"system": "MRSA", "design": "method as in 2 sources, one per row (each row's own in cited_ref): ref Giachetto et al. ([32]) ||| ref Frymoyer et al. ([33])", "conditions": "vancomycin 39.92mg·kg-1·d-1; MRSA strains with MIC 1 mg·L-1; ref Giachetto et al. ([32]); cited from earlier work"}, "[4]": {"conditions": "1,000 bootstrap-resampled data sets"}, "[5]": {"conditions": "Japanese pediatric patients, ref Yasuhara et al.([17])"}, "[6]": {"conditions": "pediatric patients, ref Wrishko et al.(16)"}},
  "note": "Read-outs that look alike come from different tables or passages of the source.",
  "data": [
    {"smiles": "CN[C@H](CC(C)C)C(=O)N[C@H]1C(=O)N[C@@H](CC(N)=O)C(=O)N[C@H]2C(=O)N[C@H]3C(=O)N[C@H](C(=O)N[C@H](C(=O)O)c4cc(O)cc(O)c4-c4cc3ccc4O)[C@H](O)c3ccc(c(Cl)c3)Oc3cc2cc(c3O[C@@H]2O[C@H](CO)[C@@H](O)[C@H](O)[C@H]2O[C@H]2C[C@](C)(N)[C@H](O)[C@H](C)O2)Oc2ccc(cc2Cl)[C@H]1O", "note": "[vancomycin, Vancomycin]", "values": [
      {"measurement": "CL", "setting": "[1]", "value": "2.22 ± 1.1", "unit": "mL/min/kg"},
      {"measurement": "Vd", "setting": "[1]", "value": "0.65 ± 0.30", "unit": "L/kg"},
      {"measurement": "ke", "setting": "[1]", "value": "0.218 ± 0.091", "unit": "h⁻¹"},
      {"measurement": "CL", "setting": "[2]; [5]", "value": 1.98, "unit": "mL/min/kg"},
      {"measurement": "Vd", "setting": "[2]; [5]", "value": 0.522, "unit": "L/kg"},
      {"measurement": "CL", "setting": "[2]; neonates, ref Marques-Minana et al.([23])", "value": 1.1, "unit": "mL/min/kg"},
      {"measurement": "CL", "setting": "[2]; [6]", "value": 2, "unit": "mL/min/kg"},
      {"measurement": "Vd", "setting": "[2]; [6]", "value": 0.57, "unit": "L/kg"},
      {"measurement": "probability of AUC0-24h/MIC ≥ 400", "setting": "[3]", "value": 50, "unit": "%"},
      {"measurement": "Exponent for Weight as covariate for CL, bootstrap median", "setting": "[4]", "value": 0.852},
      {"measurement": "Exponent for Weight as covariate for Vd, bootstrap median", "setting": "[4]", "value": 1.018},
      {"measurement": "Exponent for lnGFR as covariate for CL, bootstrap median", "setting": "[4]", "value": 2.378},
      {"measurement": "θVd (typical value for Weight=9 kg), bootstrap median", "setting": "[4]", "value": 5.39, "unit": "L"}
    ]}
  ]
}
